Target: MetAP-2 (Homo sapiens, UniProt P50579)
Assay: MetAP-2 activity measurement (coupled enzymatic reactions, Met-Arg-Ser substrate, dianisidine detection at 450 nm)
Assay type: biochemical
Conditions: Inhibition of MetAP-2; read-out: IC50 enzyme
How it was run: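 Coupled continuous assay with Met-Arg-Ser tripeptide substrate: released methionine oxidised by L-amino acid oxidase to give H2O2, which peroxidase uses to oxidise dianisidine, followed at 450 nm. Activity taken as slope of absorbance versus time over the visually linear region; dianisidine extinction coefficient converts to mol Met per time.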

MetAP-2, sequence (P50579 whole entry, species assumed): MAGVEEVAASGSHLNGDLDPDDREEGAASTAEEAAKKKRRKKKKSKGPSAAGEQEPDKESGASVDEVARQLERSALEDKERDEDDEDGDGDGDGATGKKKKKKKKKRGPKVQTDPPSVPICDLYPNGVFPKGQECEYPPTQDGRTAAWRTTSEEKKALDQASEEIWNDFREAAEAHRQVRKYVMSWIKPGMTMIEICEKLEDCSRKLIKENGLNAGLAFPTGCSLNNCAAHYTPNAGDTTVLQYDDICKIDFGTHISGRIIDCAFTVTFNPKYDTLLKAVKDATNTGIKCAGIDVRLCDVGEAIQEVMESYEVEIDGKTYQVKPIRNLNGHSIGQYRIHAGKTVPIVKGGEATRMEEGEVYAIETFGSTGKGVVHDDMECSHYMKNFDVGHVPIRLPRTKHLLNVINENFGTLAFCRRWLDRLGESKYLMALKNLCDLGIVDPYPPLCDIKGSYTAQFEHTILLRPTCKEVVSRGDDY

IC50 [nM]	Molecule
10 to 1000	O=C(c1cc2cc(N3CC[C@](O)(C(=O)NCc4cc(F)cc(Cl)c4)C3=O)ccc2[nH]1)N1CCNCC1 [B126, N-(3-Chloro-5-fluorobenzyl)-(S)-3-hydroxy-2-oxo-1-[2-(piperazin-1-carbonyl)-1H-indol-5-yl]-pyrrolidine-3-carboxamide]
10 to 1000	Nc1ccccc1NC(=O)c1cc2cc(N3CC[C@](O)(C(=O)NCc4cc(F)cc(Cl)c4)C3=O)ccc2[nH]1 [B129, N-(2-Aminophenyl)-5-[(S)-3-(3-chloro-5-fluorobenzyl-carbamoyl)-3-hydroxy-2-oxo-pyrrolidin-1-yl]-1H-indole-2-carboxamide]
10 to 1000	NCCNC(=O)c1cc2cc(N3CC[C@](O)(C(=O)NCc4cc(F)cc(Cl)c4)C3=O)ccc2[nH]1 [B132, N-(2-Aminoethyl)-5-[(S)-3-(3-chloro-5-fluorobenzyl-carbamoyl)-3-hydroxy-2-oxo-pyrrolidin-1-yl]-1H-indole-2-carboxamide]
10 to 1000	Cc1noc(-c2cc3cc(N4CC[C@](O)(C(=O)NCc5cc(F)cc(Cl)c5)C4=O)ccc3[nH]2)n1 [B135, N-(3-Chloro-5-fluorobenzyl)-(S)-3-hydroxy-1-[2-(3-methyl-1,2,4-oxadiazol-5-yl)-1H-indol-5-yl]-2-oxopyrrolidine-3-carboxamide]

The remaining lines, values behind:

Molecule	IC50 [nM]
O=C1CCc2c(ccc(N3CCC(O)(C(=O)NCc4cc(F)cc(Cl)c4)C3=O)c2F)N1 (stereo not shown) [B124, N-(3-Chloro-5-fluorobenzyl)-1-(5-fluoro-2-oxo-1,2,3,4-tetrahydroquinolin-6-yl)-3-hydroxy-2-oxopyrrolidine-3-carboxamide]	10 to 1000
O=C(NCc1cc(F)cc(Cl)c1)[C@@]1(O)CCN(c2ccc3[nH]c(-c4nc5ccccc5[nH]4)cc3c2)C1=O [B133, N-(3-Chloro-5-fluorobenzyl)-(S)-1-[2-(1H-benzoimidazol-2-yl)-1H-indol-5-yl]-3-hydroxy-2-oxo-pyrrolidine-3-carboxamide]	10 to 1000
NNC(=O)c1cc2cc(N3CC[C@](O)(C(=O)NCc4cc(F)cc(Cl)c4)C3=O)ccc2[nH]1 [B134, N-(3-Chloro-5-fluorobenzyl)-(S)-1-(2-hydrazinocarbonyl-1H-indol-5-yl)-3-hydroxy-2-oxo-pyrrolidine-3-carboxamide]	10 to 1000
O=C(NCc1cc(F)cc(Cl)c1)[C@@]1(O)CCN(OCc2ccccc2)C1=O [B136, N-(3-Chloro-5-fluorobenzyl)-(S)-1-benzyloxy-3-hydroxy-2-oxo-pyrrolidine-3-carboxamide]	10 to 1000
O=C(NCc1cc(F)cc(Cl)c1)[C@]1(O)CCN(OCc2ccccc2)C1=O [B138, N-(3-Chloro-5-fluorobenzyl)-(R)-1-benzyloxy-3-hydroxy-2-oxo-pyrrolidine-3-carboxamide]	> 10000
O=C(NCc1cc(F)cc(Cl)c1)[C@@]1(O)CCN(c2cnc3[nH]cc(C(F)(F)F)c3c2)C1=O [B139, N-(3-Chloro-5-fluorobenzyl)-(S)-3-hydroxy-2-oxo-1-(3-trifluoro-methyl-1H-pyrrolo[2,3-b]pyridin-5-yl)pyrrolidine-3-carboxamide]	10 to 1000
O=C(NCc1cc(F)cc(Cl)c1)[C@]1(O)CCN(c2cnc3[nH]cc(C(F)(F)F)c3c2)C1=O [B140, N-(3-Chloro-5-fluorobenzyl)-(R)-3-hydroxy-2-oxo-1-(3-trifluoromethyl-1H-pyrrolo-[2,3-b]pyridin-5-yl)pyrrolidine-3-carboxamide]	> 10000
CNS(=O)(=O)c1ccc(N2CC[C@](O)(C(=O)NCc3cc(F)cc(Cl)c3)C2=O)cc1 [B141, N-(3-Chloro-5-fluorobenzyl)-(S)-3-hydroxy-1-(4-methylsulfamoyl-phenyl)-2-oxopyrrolidine-3-carboxamide]	10 to 1000
(S)-3-(1,1-Dioxo-1l6- thiomorpholine-4-carbonyl)-3- hydroxy-1-phenylpyrrolidin-2-one [A56]	> 10000

Source: patent US10093623B2, “Cyclic amides as MetAP-2 inhibitors” (MERCK PATENT GmbH, priority 2012, dated 2018)
